Laboratory results reported in patent publication US8501166B2, “Pyrimidinyl indole compounds” (Hutchison Medipharma Limited, priority 2010, dated 2013).

How the values were obtained:
[1] = system: LPS-induced joint TNFα production; experiment: LPS-induced acute joint inflammation in rat; type: in vivo, Wistar rats; details: oral 1 h before intra-articular LPS 10 μg
Protocol: To further investigate the effects of IKKβ inhibitor on mechanism-relevant joint inflammation, the compound is screened for its ability to inhibit the LPS-induced joint acute inflammation in rat essentially as describe by a method reported in the literature (Matsukawa A, Yoshimura T, Miyamoto K, Ohkawara S, Yoshinaga M. Lab Invest. 1997, 76(5):629-38). Briefly, Wistar rats (female, body weight 150 g-170 g) are used in the experiments Animals (8/group) are given 1 to 100 mg/kg of the test compound [suspension in 35% Solutol (Macrogol 15 Hydroxystearate) & 60% PEG400 & 5% PG (propylene glycol)] or vehicle by oral gavage at 1 h prior to intra-articular (i.a.) administration of 10 μg of LPS in 10 μL of saline on left hind knee of each rat, using a 26-gauge needle. The right hind knee of each rat is injected with 10 μL of saline as a control. Two hour after LPS injection, each […] of the rats is lavaged with 100 μL of saline. The synovial fluids are collected and stored at -80° C. The […] is diluted 2 fold with the dilution buffer and 50 μL of the diluted sample is used for the measurement of TNFα levels using R&D System ELISA Kit based on the general Kit protocol. The plate is read on a SPECTRAMAX® M2e Plus Plate Reader and TNFα levels are analyzed using a standard curve. The drug levels are also measured by liquid chromatography-tandem mass spectrometry (LC-MS-MS).

IKKβ = molecular target: T1, IKKβ (Homo sapiens, UniProt O14920); experiment: IKKβ kinase assay (Z′-LYTE Assay Kit-Ser/Thr 5 Peptide); type: biochemical
T1 sequence (O14920 1-756): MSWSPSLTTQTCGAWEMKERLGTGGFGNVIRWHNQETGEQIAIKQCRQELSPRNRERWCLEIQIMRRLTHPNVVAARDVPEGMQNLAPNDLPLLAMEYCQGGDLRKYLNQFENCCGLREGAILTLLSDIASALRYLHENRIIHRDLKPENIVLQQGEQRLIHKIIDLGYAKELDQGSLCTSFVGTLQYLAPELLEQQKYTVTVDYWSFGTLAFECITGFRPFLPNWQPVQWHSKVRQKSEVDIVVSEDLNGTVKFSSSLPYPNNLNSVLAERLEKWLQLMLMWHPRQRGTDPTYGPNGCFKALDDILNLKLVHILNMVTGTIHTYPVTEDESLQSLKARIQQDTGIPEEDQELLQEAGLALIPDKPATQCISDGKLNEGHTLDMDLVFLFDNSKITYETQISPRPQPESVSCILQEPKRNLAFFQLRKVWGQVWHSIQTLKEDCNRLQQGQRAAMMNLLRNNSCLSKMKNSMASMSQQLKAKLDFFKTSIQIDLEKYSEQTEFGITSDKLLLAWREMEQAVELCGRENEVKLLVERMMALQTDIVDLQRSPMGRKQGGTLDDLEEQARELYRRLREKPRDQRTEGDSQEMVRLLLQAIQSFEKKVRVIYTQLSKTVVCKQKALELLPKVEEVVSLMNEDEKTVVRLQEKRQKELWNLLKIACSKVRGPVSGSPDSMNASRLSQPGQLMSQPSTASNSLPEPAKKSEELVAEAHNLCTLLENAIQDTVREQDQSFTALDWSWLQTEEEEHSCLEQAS
Protocol: Alternately, the IKKβ kinase assay is performed in vitro using a Z′-LYTE™ Assay Kit-Ser/Thr 5 Peptide (Invitrogen, Cat.No. PV3178). All reactions (20 μL) are started by adding 0.8 μL of the test compound in a DMSO solution, 10 μL of Kinase/Peptide Mixture or Phospho-Peptide solution (Invitrogen, Cat.No. PV3219, diluted with 1.33× Kinase Buffer), 5 μL of 1.33× Kinase Buffer (Invitrogen, Cat.No. PV3189, 5× diluted with distilled water) or ATP Solution (5 μM), and 4.2 μL of distilled water. The 384-well assay plate (Corning, Cat.No. 3575) is mixed and incubated at room temperature for 1 hour. 10 μL of the Development Solution [Development Reagent B (Invitrogen, Cat.No. PV3296)/Development Buffer (Invitrogen, Cat.No. PV3127)=1:128] is then added to each well, mixed and incubated at room temperature for another 1 h. The kinase reaction is then stopped by adding 10 μL of the Stop Reagent (Invitrogen, Cat.No. PV3094), and the plate is read with a Wallac 1420 VICTOR^3 Multilabel Counter (PERKIN ELMER™) at 445 nm and 520 nm fluorescence. The assay has an MSR of 2.14. The compound is initially tested at 8 concentrations (10 μM) to 0.003 μM) using a 1:3 serial dilution scheme.

Cl.O=C(NC1CC1)c1cccc2[nH]c(-c3nc(N[C@@H]4CCC[C@H]4O)ncc3Cl)cc12 [Example 2, 2-{5-Chloro-2-[(1R,2R)-2-hydroxycyclopentylamino]pyrimidin-4-yl}-N-cyclopropyl-1H-indole-4-carboxamide hydrochloride]
ED50 [1]: 23.4 mg/kg
IC50 (IKKβ): 58.1 nM
